# Source: patent US6372727B1, “Metalloporphyrin treatment of neurologic disease” (UAB Research Foundation, priority 1999, dated 2002)
# How the values were obtained:
# [1] = Oxidation of metalloporphyrins by peroxynitrite, stopped-flow spectroscopy; type: biochemical; conditions: 37° C., 0.1 M potassium phosphate pH 7.4, pseudo-first order, ± standard error
# Experimental: Peroxynitrite (in 10 mM NaOH) was rapidly mixed with the indicated MPs in 0.1 M potassium phosphate, pH 7.4 at 37° C. using a stopped-flow apparatus as described in Methods. […] A final concentration of 40 μM peroxynitrite was added to 8 μM of each of the MPs MnTBAP, MnPPIX, and FePPIX. […] INSET: Apparent rate constants for oxidation of 8 μM MnTBAP are plotted as a function of peroxynitrite concentration to illustrate how the rate constants listed in Table III were determined.
# Rates of metal loporphyrin oxidation by peroxynitrite were determined using a Bio Sequential SX-18MV Applied Photophysics stopped-flow spectrofluorometer. Solutions of metalloporphyrins in 0.1 M potassium phosphate buffer, pH 7.4 were placed in one syringe and solutions of peroxynitrite in 10 mM NaOH were placed in a second syringe, both of which were submerged in a water bath at 37° C. Changes in metalloporphyrin absorbance as a function of time were recorded following triggering of syringe firing and solution mixing (instrument dead time=2 msec); a total of 1000 data points were collected over intervals ranging from 50 msec to 3 sec. […] Because the absorbance changes associated with loss of +3 forms were greater, rates of metalloporphyrin oxidation were determined by monitoring the disappearance of Mn(III)TMPyP at 462 nm, Mn(III)TBAP at 468 nm, Mn(III)PPIX at 466 nm, and Fe(III)PPIX at 464 nm. Absorbance changes as a function of time were fitted to the equation describing a first order process. The concentration of peroxynitrite was varied from five-fold to forty-fold greater than the fixed metalloporphyrin concentration in order to obtained pseudo first-order conditions (see Table III). Each concentration was injected 10 times and data were averaged automatically prior to fitting.
# Rate constants for stoichiometric metalloporphyrin oxidation by peroxynitrite at 37° C. were determined under pseudo-first order reaction conditions by varying the amount of peroxynitrite added to a fixed concentration of metalloporphyrin (Table III).
# In Table III, the rate of peroxynitrite-mediated oxidation of metalloporphyrins at 37° C. was determined. Apparent rate constants were determined by stopped-flow spectroscopy and plotted versus the peroxynitrite concentration (as shown for MnTBAP in FIG. 4 inset) to determine the bimolecular rate constant in M^−1s^−1±standard error. FePPIX was monitored at 387 nm, MnPPIX at 464 nm, and MnTBAP at 470 nm.
# [2] = reference (8); cited from earlier work
# [3] = 100 μM DCDHF, pH 7.4, 37° C.
# Experimental: A 14.5 mM stock solution of 2,7-dichlorodihydrofluorescein was prepared as described (24). Reaction solutions were prepared in rapidly stirred glass cuvettes and contained 100 μM of DCDHF and 2 μM of the indicated MP in 1.4 ml of 0.1 M potassium phosphate, pH 7.4 at 37° C. Peroxynitrite was added sequentially to rapidly stirred cuvettes; three seperate additions of 2 μM peroxynitrite were made followed by three seperate additions of 4 μM each (see Inset). DCDHF oxidation to dichlorofluorescein (DCF) was monitored at 500 nm (59,500 M^−1cm^−1) (24). Oxidative efficiency was defined as the moles of DCF formed per mole of peroxynitrite added and was determined for each peroxynitrite addition. The values shown represent the average of all six additions.
# Dichlorodihydrofluorescein (DCDHF) undergoes a two-electron oxidation to yield the highly absorbing (and fluorescent) product dichlorofluorescein (DCF). DCDHF has been shown previously to be oxidized at an efficiency as high as 38% of added peroxynitrite (24) and was used here as an indicator to detect any changes in the total oxidative yield of peroxynitrite caused by metalloporphyrins.
# [4] = Spectral scans of peroxynitrite-oxidized Mn porphyrins and re-reduction of Mn(IV); type: biochemical
# Experimental: The peaks at 428 nm (left arrows) are due to Mn(IV)=O (15) whereas the 464 nm peaks (right arrows) are due to Mn(III). […] INSET: The indicated amounts of peroxynitrite were added to solutions of MnTBAP (10 μM) in phosphate buffer and the decrease in 464 nm absorbance was monitored at a data collection rate of 10 points/s. The maximal change in 464 nm absorbance associated with oxidation of Mn(III) to Mn(IV), which occurred in >1 s, was plotted versus peroxynitrite; the concentration at which no further absorbance change occurred was used to establish the reaction stoichiometry.
smiles,measurement,setting,value
"C[n+]1ccc(-c2c3nc(c(-c4cc[n+](C)cc4)c4ccc([n-]4)c(-c4cc[n+](C)cc4)c4nc(c(-c5cc[n+](C)cc5)c5ccc2[n-]5)C=C4)C=C3)cc1.[Cl-].[Cl-].[Cl-].[Cl-].[Cl-].[Mn+3] [MnTMPyP, Manganese (III) meso-tetra-(N-methyl-4-pyridyl)-porphine chloride]",Rate Constants for Oxidation of MPs by Peroxynitrite,[1],3.6e+06 M⁻¹ s⁻¹
same,Rate constant for oxidation by peroxynitrite reported previously,[2],1.8e+06 M⁻¹ s⁻¹
same,increase of total oxidant yield from peroxynitrite,[3],2.2 fold
same,"oxidant yield, of added peroxynitrite",[3],83%
same,time to complete re-reduction to Mn(III),"[4]; 10 μM MP, peroxynitrite 20 μM alone",30 s
same,time to complete re-reduction to Mn(III),[4]; 50 μM H2O2 added before peroxynitrite,17 s
same,time to complete re-reduction to Mn(III),[4]; 50 μM nitrate added before peroxynitrite,74 s
same,time to complete re-reduction to Mn(III),[4]; 50 μM nitrite added before peroxynitrite,30 s
same,time to complete re-reduction to Mn(III),[4]; H2O2 and nitrate or H2O2 and nitrite added together,17 s
